Patent publication US20150094474A1, “AGRICULTURAL CHEMICALS” (Redx Pharma Ltd., priority 2012, published 2015)

Legend:
Type in all cases: in vivo
Details in all cases: 20% concentration
[1] = system: German cockroaches, Blattella germanica; assay: Insect repellent bioassay, German cockroaches (treated tile arena)
Method: (§1) A laboratory bioassay was conducted to screen 5 compounds (Icaridin (38); and 4 icaridin analogues: 39, 40a, 42a and 41) for repellent activity against houseflies, Musca domestica, black ants, Lasius niger, German cockroaches, Blattella germanica, and bedbugs, Cimex lectularius. Compounds were diluted in a mixture of ethanol and water and assessed at a 20% concentration. A mixture of ethanol/water only negative control was also included for comparative purposes. These were applied onto an aluminium foil tile, which was placed into one half of an arena. The other half of the arena contained an untreated aluminium foil tile. The number of insects present in the treated and untreated area was assessed every 5 minutes for a total of 20 minutes.
(§2) Houseflies, Musca domestica, and German cockroaches, Blattella germanica, were obtained from a laboratory culture maintained at i2LResearch. Mixed sex and age adult insects (flies were aged 3-6 days old) were used in the experiments.
(§3) Temperature was maintained between 24.2 and 24.6° C. and relative humidity ranged between 27.5% and 43.5%, throughout the experimental period.
(§4) The tested compounds were diluted in ethanol and water to a concentration of 20% (w/w: compound 20%, ethanol 40%, water 40%). The concentrates were prepared at room temperature and stirred for approximately 15 minutes using a vortex mixer. A negative control (mixture of ethanol:water 50:50) was also included in the testing for comparative purposes. Treatments were applied directly on to a non porous surface (aluminium foil), using a Gilson pipette at a rate of 0.225 ml per 225 cm^2 surface tile. A small piece of acetate was used to evenly spread the treatments across the entire surface of the tile.
(§5) For the testing against ants, cockroaches and bedbugs: A clear plastic container was used measuring approximately 34 cm long×21 cm wide×20 cm high. This was divided into two halves. The treated aluminium foil was placed in one half and the other half contained untreated foil. Food (sugar cube for black ants and bran pellet for cockroaches) and water (damp cotton wool) were placed in each half where appropriate. Twenty ants/cockroaches and ten bedbugs were placed in the centre of the arena. The number of insects in each half was assessed at 5 minute intervals for a total of 20 minutes.
(§6) Three to six replicates were performed for each treatment, for each species.

[2] = system: black ants, Lasius niger; assay: Insect repellent bioassay, black ants (treated tile arena)
Method: as §1
Black ants, Lasius niger, were field collected from the Cardiff area. Mixed age worker ants were used in the experiments.
as §3, §4, §5, §6

[3] = system: bedbugs, Cimex lectularius; assay: Insect repellent bioassay, bedbugs (treated tile arena)
Method: as §1
Bedbugs, Cimex lectularius, were obtained from a laboratory culture maintained at CimexStore (Chepstow, UK). Mixed age and sex adult bedbugs were used in the experiments (see deviation below).
as §3, §4, §5, §6

[4] = system: houseflies, Musca domestica; assay: Insect repellent bioassay, houseflies (treated tile arena)
Method: as §1, §2, §3, §4
For the testing against houseflies: A clear plastic container was used measuring approximately 34 cm long×21 cm wide×20 cm high, with a piece of netting and lid on top. This was divided into two halves using an additional tile with a small slit measuring approximately 2.5 cm×5 cm cut at a height of […] from the base, so that the insects could freely travel between halves. A treated and untreated tile was placed either side of the dividing panel. Twenty flies were placed in the half with the treated surface. Sugar and water was placed in both halves. The number of insects crossing from the treated area into the untreated area was assessed at 5 minute intervals for a total of 20 minutes.
as §6

| SMILES | insects on the treated tile ([1]; TIME 5 mins) | insects on the treated tile ([1]; TIME 10 mins) | insects on the treated tile ([1]; TIME 15 mins) | insects on the treated tile ([1]; TIME 20 mins) | insects on the treated tile ([2]; TIME 5 mins) | insects on the treated tile ([2]; TIME 10 mins) | insects on the treated tile ([2]; TIME 15 mins) | insects on the treated tile ([2]; TIME 20 mins) | insects on the treated tile ([3]; TIME 5 mins) | insects on the treated tile ([3]; TIME 20 mins) | insects moving towards the treated tile ([4]; TIME 5 mins) | insects moving towards the treated tile ([4]; TIME 10 mins) | insects moving towards the treated tile ([4]; TIME 15 mins) | insects moving towards the treated tile ([4]; TIME 20 mins) | insects on the treated tile ([3]; TIME 10 mins) | insects on the treated tile ([3]; TIME 15 mins) |
| --- | --- | --- | --- | --- | --- | --- | --- | --- | --- | --- | --- | --- | --- | --- | --- | --- |
| CCC(C)OC(=O)N1CCCCC1CC=O (stereo not drawn) [Compound 39, sec-Butyl 2-(2-oxoethyl)piperidine-1-carboxylate] | B (between 11% and 25% were on the treated tile) | B (between 11% and 25% were on the treated tile) | B (between 11% and 25% were on the treated tile) | B (between 11% and 25% were on the treated tile) | B (between 11% and 25% were on the treated tile) | B (between 11% and 25% were on the treated tile) | B (between 11% and 25% were on the treated tile) | B (between 11% and 25% were on the treated tile) | A (10% or less of the insects were on the treated tile) | A (10% or less of the insects were on the treated tile) | B (between 11% and 25% were on the treated tile) | C (greater than 25% were on the treated tile) | C (greater than 25% were on the treated tile) | C (greater than 25% were on the treated tile) | – | – |
| CCC(C)OC(=O)N1CCCCC1C/C=N/O (stereo not drawn) [Compound 40a] | C (greater than 25% were on the treated tile) | B (between 11% and 25% were on the treated tile) | B (between 11% and 25% were on the treated tile) | B (between 11% and 25% were on the treated tile) | C (greater than 25% were on the treated tile) | C (greater than 25% were on the treated tile) | C (greater than 25% were on the treated tile) | C (greater than 25% were on the treated tile) | – | – | B (between 11% and 25% were on the treated tile) | B (between 11% and 25% were on the treated tile) | B (between 11% and 25% were on the treated tile) | B (between 11% and 25% were on the treated tile) | A (10% or less of the insects were on the treated tile) | – |
| CCC(C)OC(=O)N1CCCCC1CC(=O)O (stereo not drawn) [Compound 41, 2-(1-sec-Butoxycarbonyl-2-piperidyl)acetic acid] | B (between 11% and 25% were on the treated tile) | B (between 11% and 25% were on the treated tile) | B (between 11% and 25% were on the treated tile) | B (between 11% and 25% were on the treated tile) | C (greater than 25% were on the treated tile) | C (greater than 25% were on the treated tile) | C (greater than 25% were on the treated tile) | C (greater than 25% were on the treated tile) | A (10% or less of the insects were on the treated tile) | B (between 11% and 25% were on the treated tile) | A (10% or less of the insects were on the treated tile) | A (10% or less of the insects were on the treated tile) | B (between 11% and 25% were on the treated tile) | B (between 11% and 25% were on the treated tile) | B (between 11% and 25% were on the treated tile) | B (between 11% and 25% were on the treated tile) |
| CCC(C)OC(=O)N1CCCCC1CC(=O)OC (stereo not drawn) [Compound 42a, sec-Butyl 2-(2-methoxy-2-oxo-ethyl)piperidine-1-carboxylate] | B (between 11% and 25% were on the treated tile) | B (between 11% and 25% were on the treated tile) | B (between 11% and 25% were on the treated tile) | B (between 11% and 25% were on the treated tile) | B (between 11% and 25% were on the treated tile) | B (between 11% and 25% were on the treated tile) | B (between 11% and 25% were on the treated tile) | A (10% or less of the insects were on the treated tile) | A (10% or less of the insects were on the treated tile) | A (10% or less of the insects were on the treated tile) | A (10% or less of the insects were on the treated tile) | A (10% or less of the insects were on the treated tile) | B (between 11% and 25% were on the treated tile) | B (between 11% and 25% were on the treated tile) | A (10% or less of the insects were on the treated tile) | A (10% or less of the insects were on the treated tile) |
| CCC(C)OC(=O)N1CCCCC1CCO (stereo not drawn) [Icaridin (38), Icaridin, reference compound] | B (between 11% and 25% were on the treated tile) | B (between 11% and 25% were on the treated tile) | A (10% or less of the insects were on the treated tile) | A (10% or less of the insects were on the treated tile) | B (between 11% and 25% were on the treated tile) | B (between 11% and 25% were on the treated tile) | B (between 11% and 25% were on the treated tile) | A (10% or less of the insects were on the treated tile) | A (10% or less of the insects were on the treated tile) | A (10% or less of the insects were on the treated tile) | B (between 11% and 25% were on the treated tile) | C (greater than 25% were on the treated tile) | C (greater than 25% were on the treated tile) | C (greater than 25% were on the treated tile) | A (10% or less of the insects were on the treated tile) | A (10% or less of the insects were on the treated tile) |
